{"source": "patent US7910621B2", "about": "“Small molecule antagonists of XIAP family proteins” (The Regents of the University of Michigan, priority 2004, dated 2011)", "key": {"[1]": {"system": "PC-3 prostate cancer cells", "test": "WST-1 cell growth inhibition assay, PC-3", "format": "cell-based", "settings": "Homo sapiens, 120 h; PC-3, WST-1, five days", "protocol": "(§1) FIG. 5 presents inhibition of cell growth by embelin in prostate cancer cells (PC-3 and LnCap) and its selectivity in normal human prostate epithelial cells (PrEC) and normal human fibroblast cell line, WI-38. 5000 cells per well in a 96-well cell culture plate were treated with various concentrations of embelin in triplicate. Five days later, the cell growth was measured by the WST-1 cell growth assay kit […] The cell growth results are expressed as the percent of control and calculated from the percent of absorbance of treated wells versus that of vehicle control.\n(§2) Human prostate cancer cell lines (PC-3, LNCap, CL-1, DU-145), and normal human fibroblast cell line WI-38 were obtained from the American Type Culture Collection (ATCC), were grown and maintained in Dulbecco's modified Eagle's medium (DMEM) containing 10% FBS (Invitrogen Corporation). Normal human prostate epithelial cells (PrEC) were obtained from Clonetics (Cambrex Inc., MD) and maintained in the special medium provided by the company. […]\n(§3) Cell growth was determined by the MTT-based assay using Cell Proliferation Reagent WST-1 (Roche) according to the manufacturer's instruction. […] Absorbance was measured with a plate reader at […] with correction at […]. The results are expressed as the percent of absorbance of treated wells versus that of vehicle control."}, "[2]": {"system": "LNCap prostate cancer cells", "test": "WST-1 cell growth inhibition assay, LNCaP", "format": "cell-based", "settings": "Homo sapiens, 120 h, WST-1, five days", "protocol": "as §1, §2, §3"}, "caspase-9 in PC-3 cells": {"system": "caspase-9 in PC-3 cells", "test": "Activation of caspase-9 assay, PC-3", "format": "cell-based, human", "settings": "for increase in activated caspase-9 as compared to vehicle treated control cells / PC-3 cells positively stained for activated caspase-9: 42 hrs; for PC-3 cells positively stained for activated caspase-9: vehicle control 3.1%", "protocol": "FIGS. 7A and 7B show the activation of caspase-9 by embelin in PC-3 prostate cancer cells and its selectivity in normal prostate epithelial cells. 1×10^6 PC-3 or PrEC cells per well in 6-well culture plates were treated with embelin for 48 hours. […] The cells were collected and stained of active caspase-9 by CaspGLOW Red Active Caspase-9 Staining Kit, and analyzed by flow cytometry in PI channel.\n1×10^6 PC-3 cells per well in 6-well culture plates, were treated with various concentrations of embelin, or the same amount of solvent DMSO as vehicle control, for up to 48 hr. […] The cells were collected for staining of active caspase-9 by CaspGLOW Red Active Caspase-9 Staining Kit (BioVision, Inc., Mountain View, Calif.) according to the manufacturer's instructions, with modification. Briefly, to each tube containing 1×10^6 treated or control cells in 0.3 ml complete culture medium was added 1 μl of Red-LEHD-FMK and incubated for 0.5 hr at 37° C. incubator with 5% CO2. For double staining with Annexin V-FITC, the cells were spun down and resuspended in 100 μl Binding Buffer containing 1× Annexin V-FITC from the Annexin-V-FLUOS Kit (Roche) and incubated at room temperature for 10 min. The cells were then washed two times with Wash Buffer from the Active Caspase-9 Staining Kit. The cells were resuspended in 0.3 ml Binding Buffer and analyzed by flow cytometry, using PI channel for active caspase-9 and FITC channel for apoptosis.\nThe active caspase-9 and Annexin V double stained cells were also observed under Zeiss Laser Scanning Confocal Microscope LSM 510 Meta, using the fluorescent filter sets for rhodamine (Red) and FITC (green) channels. Early apoptotic cells show green fluorescence on the cell membrane while caspase-9 positive cells show bright red staining in the cytoplasm. Photos were taken at original magnification of 630×."}, "[3]": {"system": "methylcholanthrene-induced fibrosarcoma", "settings": "methylcholanthrene-induced fibrosarcoma in albino rats (Chitra et al. 1994); cited from earlier work"}}, "note": "pIC50: −log10 of the molar value.", "data": [{"smiles": "CCCCCCCCCCCC1=C(O)C(=O)C=C(O)C1=O", "note": "[embelin]", "values": [{"measurement": "pIC50", "setting": "[1]", "value": 5.43}, {"measurement": "pIC50", "setting": "[2]", "value": 5.24}, {"measurement": "increase in activated caspase-9 as compared to vehicle treated control cells", "setting": "caspase-9 in PC-3 cells; 20 μM", "value": 10, "unit": "fold"}, {"measurement": "PC-3 cells positively stained for activated caspase-9", "setting": "caspase-9 in PC-3 cells; 20 μM", "value": 33.0, "unit": "%"}, {"measurement": "increase in activated caspase-9 as compared to vehicle treated control cells", "setting": "caspase-9 in PC-3 cells; 40 μM", "value": 20, "unit": "fold"}, {"measurement": "PC-3 cells positively stained for activated caspase-9", "setting": "caspase-9 in PC-3 cells; 40 μM", "value": 62.1, "unit": "%"}, {"measurement": "activation of caspase-9 in PC-3 cells", "setting": "caspase-9 in PC-3 cells; in words", "value": "effectively activates caspase-9 in a dose-dependant manner"}, {"measurement": "antitumor activity", "setting": "[3]", "value": "significant antitumor activity"}]}]}
